Test results: patent publication US5958943A, “[A]-anellated pyrrole derivatives and their use in pharmacology” (Merckle GmbH, priority 1994, dated 1999)

Columns and labels:
[1] = biological target: T1, 5-lipoxygenase (Bos taurus, UniProt F1MQ78); assay: Inhibition of 5-lipoxygenase (LO), according to Dannhardt et al.; type: biochemical; settings: Table 1 column IC50 LO/CO, first value
T1 construct: endogenous in cells
T1 sequence (F1MQ78 1-674): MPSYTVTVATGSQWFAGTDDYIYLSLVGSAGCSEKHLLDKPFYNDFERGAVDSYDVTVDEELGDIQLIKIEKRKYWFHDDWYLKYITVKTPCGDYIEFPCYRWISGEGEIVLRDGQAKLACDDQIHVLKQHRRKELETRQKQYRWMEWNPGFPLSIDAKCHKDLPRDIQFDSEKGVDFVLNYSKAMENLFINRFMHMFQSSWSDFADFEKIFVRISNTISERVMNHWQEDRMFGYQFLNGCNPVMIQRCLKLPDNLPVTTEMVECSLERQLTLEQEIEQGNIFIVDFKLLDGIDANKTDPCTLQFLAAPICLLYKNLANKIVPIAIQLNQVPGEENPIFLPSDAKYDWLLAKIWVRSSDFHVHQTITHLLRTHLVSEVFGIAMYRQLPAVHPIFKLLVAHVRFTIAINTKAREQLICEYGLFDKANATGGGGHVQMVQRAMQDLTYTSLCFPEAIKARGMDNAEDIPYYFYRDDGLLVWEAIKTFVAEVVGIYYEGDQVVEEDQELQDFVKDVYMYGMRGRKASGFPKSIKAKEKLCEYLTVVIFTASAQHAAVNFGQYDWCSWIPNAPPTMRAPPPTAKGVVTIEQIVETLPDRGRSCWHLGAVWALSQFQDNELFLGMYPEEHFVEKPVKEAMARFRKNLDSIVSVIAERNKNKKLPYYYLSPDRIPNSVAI
Text: (§1) The efficacy of the compounds according to the invention can be determined from the inhibition of 5-lipoxygenase or cyclooxygenase. Experiments have be carried out according to Dannhardt et al., J. Pharm. Pharmacol. 1992, 44: 419-424.

[2] = tested on: mouse; assay: Formalin analgesia test in the mouse p.o.; type: in vivo
Text: The spectrum of efficacy of the compounds was also investigated using the following tests:
2) Formalin analgesia test in the mouse p.o., B. Rubin et al., Endocrinol.,49:429-439, 1951;

[3] = biological target: T2, cyclooxygenase (Bos taurus, UniProt O62664); assay: Inhibition of cyclooxygenase (CO), according to Dannhardt et al.; type: biochemical; settings: Table 1 column IC50 LO/CO, second value
T2 construct: endogenous in cells
T2 sequence (O62664 25-600): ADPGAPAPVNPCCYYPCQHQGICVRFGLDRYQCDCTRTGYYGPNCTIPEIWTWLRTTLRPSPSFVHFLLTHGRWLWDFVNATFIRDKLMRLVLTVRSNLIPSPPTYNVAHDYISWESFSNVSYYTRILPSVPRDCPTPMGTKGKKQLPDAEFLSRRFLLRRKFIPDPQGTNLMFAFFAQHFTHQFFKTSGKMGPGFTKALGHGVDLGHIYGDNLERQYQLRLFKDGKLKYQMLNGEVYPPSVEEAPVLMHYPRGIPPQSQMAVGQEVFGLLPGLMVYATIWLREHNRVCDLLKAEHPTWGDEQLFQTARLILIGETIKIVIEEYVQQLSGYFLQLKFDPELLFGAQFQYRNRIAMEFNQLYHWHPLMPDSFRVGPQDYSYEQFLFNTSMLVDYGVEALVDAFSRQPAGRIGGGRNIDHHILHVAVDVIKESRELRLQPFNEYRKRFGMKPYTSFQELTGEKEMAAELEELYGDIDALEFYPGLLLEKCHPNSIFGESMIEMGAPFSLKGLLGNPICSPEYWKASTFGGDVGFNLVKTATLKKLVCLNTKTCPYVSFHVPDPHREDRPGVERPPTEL
Text: as §1

IC50 [1] [nM] | IC50 [3] [nM] | SMILES | times more analgesically effective than the corresponding 4-chlorophenyl derivative ([2]; in vivo, compared with the corresponding 4-chlorophenyl derivative) [times] | minimal effective dose ([2]; po, formalin analgesia model of the mouse, comparison compound, read-out: MED) [mg/kg]
400 | 200 | CC1(C)Cc2c(-c3ccccc3)c(-c3ccc(Cl)s3)c(CC(=O)O)n2C1 [Example 1] | 10 | 
 |  | CC1(C)Cc2c(-c3ccccc3)c(-c3ccc(Cl)cc3)c(CC(=O)O)n2C1 [corresponding 4-chlorophenyl derivative, reference compound] |  | 100
